“And” between values parts separate entries of the source, which are not always exact repeats. Equal entries are not always repeated.
Tests used:
[1] = test system: murine B-cell proliferation; assay: B-cell proliferation assay (anti-mu antibody and/or IL-4); type: cell-based; details: stimulated by anti-mu antibody crosslinked and/or IL-4
Experimental: A B-cell proliferation assay determines the effect of the inventive compounds on inhibiting proliferation of stimulated B-cells, stimulated by an anti-mu antibody ([…]), IL-4 or PMA (2.5 nM). Ramos B-cell tumor cells or murine splenocytes can be incubated with a stimulating agent, an inventive compound and tritiated thymidine to measure inhibition of cell proliferation caused by the stimulating agent.

thymocytes = assay: thymocyte costimulator assay (ConA and IL-1α or IL-2); type: cell-based, mice; details: drug added two hours prior to activation
Experimental: CT1501R was added to the cells at the doses indicated two hours prior to activation with ConA and IL-1α or IL-2. Background counts were less than 200 cpm.
A thymocyte costimulator assay is conducted to evaluate the inventive compounds to inhibit activation and proliferation of thymocytes caused by stimulation with Con A and interleukin-1 (IL-1), or […]. Thymuses are obtained from mice (e.g., female Balb/C mice) and the thymuses are removed and dissociated into culture media (e.g., RPMI 1640 without serum supplementation). The dissociated thymus tissue and cell suspension is transferred to centrifuge tubes and allowed to settle, washed with HBSS and resuspended in serum-supplemented culture media (e.g., RPMI 1640 with 10% fetal calf serum). Any contaminating red cells are lysed, and viable cells are resuspended and counted. Thymocytes are plated (e.g., 96-well plates at a density of 2×10^5 cells/well) and a stimulating agent, such as Con A, IL-1 (e.g., IL-1α) or IL-2 is added to the well. The cells are incubated for 4 days at 37 ° C. On the fourth day, the ceils are pulsed with tritiated thymidine and cell proliferation determined. Inventive compounds are added at the time of stimulating agent addition.

[2] = test system: endotoxin induced lethality; assay: endotoxin induced lethality in mice (septic shock model); type: in vivo, Balb/c mice; details: for cumulative percent survival: 72 hours post LPS (LPS-only 7%); for survival (Number Surviving/Total): single experiments
Experimental: Animals were treated with 10 μg/gm of LPS (i.v.) Immediately following the LPS (t=0), 2 hrs after the LPS (t=2) or 4 hrs following LPS (t-4) the mice were treated with their first treatment of CT1501R (100 mg/kg, i.p.). The mice were treated with CT1501R three times per day thereafter, and animal survival was monitored.
This example illustrates the effect of CT1501R on survival in mice given a lethal dose of endotoxin. We determined if CT1501R protects against endotoxin induced lethality in a murine model. Septic shock was modeled by endotoxin injection of 6-8 week old female Balb/c mice similar to previously published reports (Ashkenazi et al. Proc. Natl. Acad. Sci. U.S.A. 88: 10535-10539, 1991) under protocols approved by the Animal Use Committee of the Biomembrane Institute, Seattle, Wash. Animals were injected intravaneously (i.v.) with an approximate LD100 dose (10 μg/g) of Salmonella abortus equi-derived endotoxin (Sigma Chemical Co., L-1887) in phosphate buffered saline (PBS). CT1501R at a dose of 100 μg/kg was injected intraperitoneally (IP) 3 times per day ([…]). Control mice were injected at the same times with a similar volume of vehicle control (PBS). Survival was followed for at least 72 hours.
Ten mice were treated each with PB S alone or CT 1501R alone on the same schedule as the experimental mice. […] Endotoxin survival data were summarized from a total of six (6) independent experiments. Summary Table 1 details the results of each of the six experiments. In FIG. 5, each time point represents a minimum of three (3) experiments comprising at least twenty (20) mice per group. A probability analysis of the survival data using a Fisher's Exact One Tailed Test is given as Table 3. Significant protection was conferred if CT1501R was administered immediately after the LPS treatment. The cumulative percent survival at 72 hours post LPS treatment was 60% compared to 7% for the LPS-only treated animals (p=<0.0005; Table 3).

IL-6 = assay: mouse plasma IL-6 ELISA after endotoxin; type: in vivo, mice
Experimental: FIG. 8 illustrates data from mouse plasma IL-6 ELISA measurements. Data are compiled from the average of duplicate ELISA measurements from a single experiment with each point representing pooled plasma from three mice.
For ELISA measurements of cytokine levels in plasma, blood was collected by retro-orbital or cardiac puncture of anesthetized mice, immediately centrifuged and the EDTA plasma stored at -70° C. Particulate free plasma was thawed on ice and cytokine levels determined utilizing commercial ELISA assays with normal mouse plasma used to generate standard curves. Murine tumor necrosis factor-α and interleukin-1α kits were purchased from Genzyme (Cambridge, Mass.) and Endogen (Boston, Mass.), respectively. Each data point was an average of two ELISA measurements made from EDTA serum pooled from three mice. The data summarized in Table 3 were compiled from two independent experiments; data from Table 4 and 5 were from single experiments of three mice per data point.
In particular, peak levels observed at 6, 12 and 18 hours post endotoxin were decreased 1.2, 4.3 and 3.2-fold, respectively. Finally, IL-6 measurements were made in a similar manner (Table 6, FIG. 8).

[3] = test system: hematopoietic reconstitution following 5-FU; assay: 5-fluorouracil (5-FU) induced bone marrow suppression in mice; type: in vivo, Balb/C mice
Source text: Groups of 4 mice were phlebotomized at each time point. The values on the graph represent the means ±1 SD.
Groups of 4 mice were phlebotomized at each time point. The values on the group represent the means ±1 SD.
Groups of 4 mice were sacrificed and had one femur harvested at each time point. The values on the graph represent the means ±1 SD of the mean number of colonies per each individual tested in triplicate cultures.
Female Balb/C mice (VAF, Charles River Laboratories, 6-8 wks of age approximately 17.3-18.5 g) were treated with 5-FU at a dose of 200 mg/kg intraperitoneally (i.p.) in experiment 1 or 190 μg/kg in experiment 2. […] Mice (4 per group) were sacrificed starting 2 days after 5-FU by cardiac puncture under halothane anesthesia followed by cervical dislocation and had total white blood cell counts and differential counts performed. Platelet counts were performed using phase-contrast microscopy in duplicate. Femurs were harvested and the number of granulocyte-macrophage colony forming cells (CFU-GM) per femur were measured using a standard assay (Terry Fox Laboratories, Vancouver, British Columbia) using pokeweed mitogen spleen conditioned medium as the growth factor. Each femur was plated separately in triplicate and the mean and means for each experimental point was calculated. Standard deviations used for staffstidal analysis were deviations of the mean number of colonies measured for each femur.
Experiment 2 was similar to experiment 1 with the following exceptions: (1) the dose of 5-FU was decreased to 185 mg/kg; (2) daily blood draws were performed between days 10 and 15; and (3) platelet counts were performed.

C[C@@H](O)CCCCn1c(=O)c2c(ncn2C)n(C)c1=O [CT1501R, (R)-1-(5-hydroxyhexyl)-3,7-dimethylxanthine]
inhibition of murine B-cell proliferation [1]: inhibited B-cell proliferation
inhibition of thymocyte proliferation (thymocytes): inhibited thymocyte proliferation in a dose-response manner
cumulative percent survival ([2]; CT1501R four hours after LPS): 37%
cumulative percent survival ([2]; CT1501R immediately after LPS): 60%
cumulative percent survival ([2]; CT1501R two hours after LPS): 55%
survival compared with published results for Genentech's bifunctional TNF receptor ([2]; drug given approximately simultaneously with or two hours following lethal LPS): consistently was better at improving survival than Genentech's TNF receptor
survival (Number Surviving/Total) ([2]; first CT-1501R dose t = 0 Hr post LPS, 24 Hr post LPS): 4/5 and 5/5 and 9/10
survival (Number Surviving/Total) ([2]; first CT-1501R dose t = 0 Hr post LPS, 48 Hr post LPS): 4/5 and 5/5 and 7/10
survival (Number Surviving/Total) ([2]; first CT-1501R dose t = 0 Hr post LPS, 72 Hr post LPS): 4/5 and 5/5 and 3/10
survival (Number Surviving/Total) ([2]; first CT-1501R dose t = 2 Hr post LPS, 24 Hr post LPS): 4/5 and 5/5 and 5/10
survival (Number Surviving/Total) ([2]; first CT-1501R dose t = 2 Hr post LPS, 48 Hr post LPS): 3/5 and 5/5 and 3/10
survival (Number Surviving/Total) ([2]; first CT-1501R dose t = 2 Hr post LPS, 72 Hr post LPS): 3/5 and 5/5 and 3/10
survival (Number Surviving/Total) ([2]; first CT-1501R dose t = 4 Hr post LPS, 24 Hr post LPS): 5/5 and 7/10 and 3/10
survival (Number Surviving/Total) ([2]; first CT-1501R dose t = 4 Hr post LPS, 48 Hr post LPS): 3/5 and 5/10 and 4/10 and 3/10
survival (Number Surviving/Total) ([2]; first CT-1501R dose t = 4 Hr post LPS, 72 Hr post LPS): 3/5 and 5/10 and 2/10 and 3/10
adverse effects, drug alone without endotoxin ([2]; ten mice, same schedule as the experimental mice): no adverse effects noted
decrease of peak plasma IL-6 vs endotoxin only (IL-6; 3 hours post endotoxin): 1.7 fold
decrease of peak plasma IL-6 vs endotoxin only (IL-6; 6 hours post endotoxin): 2.0 fold
decrease of peak plasma IL-6 vs endotoxin only (IL-6; 12 hours post endotoxin): 4.1 fold
increase in number of CFU-GM/femur during hematopoietic recovery vs control ([3]; 5-FU treated mice): approximately two-fold increase
CFU-GM/femur vs vehicle control and day 0 ([3]; experiment 1, day 13 (p=0.024 vs vehicle, p=0.05 vs day 0)): significantly more CFU-GM/femur on day 13
ANC (absolute neutrophil count), mean ±SD ([3]; experiment 1, day 13 after 5-FU (control 180±10/mm^3, P=0.05)): 440±17 /mm^3
WBC of 5-FU treated mice vs vehicle control ([3]; experiment 1, days 6 and 10 (p=0.019 and 0.036)): significantly lower in vehicle treated controls than in CT1501R treated mice
WBC vs vehicle control ([3]; experiment 2): significantly higher WBC's
neutrophil recovery ([3]; experiment 2): Neutrophil recovery was accelerated
number of cells per femur during hematopoietic recovery vs control ([3]; experiment 2): number of cells per femur was increased
platelet count nadir and rate of recovery vs vehicle control ([3]; experiment 2): platelet count nadir and rate of recovery were also increased
WBC and ANC, mice without 5-FU ([3]; i.p. bid, no 5-FU): remained within 1 SD of control values
adverse effects, mice without 5-FU ([3]; i.p. bid, no 5-FU): no apparent adverse effects
rise in ANC and CFU-GM/femur associated with vehicle injections, mice without 5-FU ([3]; no 5-FU, twice daily i.p. injections): prevented both the rise in ANC and rise in CFU-GM/femur

Source: US5621102A, “Process for preparing enantiomerically pure xanthine derivatives” (Cell Therapeutics, Inc., priority 1995, dated 1997)
